The experiment concerns collapse on exposure to an aerosol of methacholine. As to the kind of experiment: Anticholinergic test: prolongation of collapse time in conscious guinea pigs exposed to an aerosol of methacholine. The class given is in vivo. To be noted: guinea pig, 25 mg/kg intraperitoneally; 10 minutes methacholine aerosol; Control 1.9 to 2.0. The procedure: The compounds of the invention display anticholinergic properties when tested by the following procedure: Conscious guinea pigs, six at a time, are put into a sealed chamber and exposed for 10 minutes to an aerosol of methacholine. Untreated animals or those treated with vehicle will collapse in 1.9±0.1 minutes. Groups of animals are injected intraperitoneally with 25 mg/kg of test compound and exposed in the chamber under the same conditions. Compounds which prolong the collapse time past that of the control animals are considered active.

Counter-ions that a name gives are not always drawn.

`CNC(C)CN1CCc2c(c(=O)oc3cc(C)c(NC(C)=O)cc23)C1` (stereo not drawn) [AcNH Me H Me H, N-[1,3,4,5-Tetrahydro-8-methyl-3-[2-(methylamino)propyl]-5-oxo-2H-[1]benzopyrano[3,4-c]pyridin-9-yl]acetamide]: the “(Minutes Protection)” value was 10.0 min.
With `CCN(CC)C(C)CN1CCc2c(c(=O)oc3cc(C)c(Cl)cc23)C1` (stereo not drawn) [Cl Me H Et Et, 9-Chloro-3-[2-(diethylamino)propyl]-1,2,3,4-tetrahydro-8-methyl-5H-[1]benzopyrano[3,4-c]pyridin-5-one], the “(Minutes Protection)” value was found to be 3.4 min.
Next, `CCNC(C)CN1CCc2c(c(=O)oc3cc(C)c(Cl)cc23)C1` (stereo not drawn) [Cl Me H Et H, 9-Chloro-3-[2-(ethylamino)propyl]-1,2,3,4-tetrahydro-8-methyl-5H-[1]benzopyrano[3,4-c]pyridin-5-one]: 3.1 min.
The result for `CCOc1cc2oc(=O)c3c(c2cc1OCC)CCN(CC(C)N(CC)CC)C3.Cl.Cl` (stereo not drawn) [EtO EtO H Et Et, 3-[2-(Diethylamino)propyl]-1,2,3,4-tetrahydro-8,9-diethoxy-5H-[1]benzopyrano[3,4-c]pyridin-5-one dihydrochloride] reads 10.0 min; that for `CC(CN1CCc2c(c(=O)oc3c2ccc2ccccc23)C1)N(C)C` (stereo not drawn) [H CHCHCHCH Me Me, 2-[2-(Dimethylamino)propyl]-1,2,3,4-tetrahydro-12H-naphtho-[2',1':5,6]pyrano[3,4-c]pyridin-12-one dihydrochlorine], 5.9 min.
Regarding `CCCN(CC)C(C)CN1CCc2c(c(=O)oc3ccccc23)C1` (stereo not drawn) [H H H Et Pr, 3-[2-(Ethylpropylamino)propyl]-1,2,3,4-tetrahydro-5H-[1]benzopyrano[3,4-c]pyridin-5-one], the “(Minutes Protection)” value worked out at 6.4 min.
Regarding `CCNC(C)CN1CCc2c(c(=O)oc3cc(C)ccc23)C1` (stereo not drawn) [H Me H Et H, 3-[2-(Ethylamine)propyl]-1,2,3,4-tetrahydro-8-methyl-5H-[1]benzopyrano[3,4-c]pyridin-5-one], the “(Minutes Protection)” value was 10.0 min.
In the case of `CCCN(CC)C(C)CN1CCc2c(c(=O)oc3cc(C)ccc23)C1` (stereo not drawn) [H Me H Et n-Pr, 3-[2-(Ethylpropylamino)propyl]-1,2,3,4-tetrahydro-8-methyl-5H-[1]benzopyrano[3,4-c]pyridin-5-one], the “(Minutes Protection)” value is 7.6 min.
The result for `CNC(C)CN1CCc2c(c(=O)oc3cc(C)ccc23)C1` (stereo not drawn) [H Me H Me H, 1,2,3,4-Tetrahydro-8-methyl-3-[2-(methylamine)propyl]-5H-[1]-benzopyrano[3,4-c]pyridin-5-one] reads 2.1 min; that for `CCCCN(C)C(C)CN1CCc2c(c(=O)oc3cc(C)ccc23)C1` (stereo not drawn) [H Me H Me n-Bu, 3-[2-(Butylmethylamino)propyl]-1,2,3,4-tetrahydro-8-methyl-5H-[1]benzopyrano[3,4-c]pyridin-5-one], 7.8 min; that for `CCCN(C)C(C)CN1CCc2c(c(=O)oc3cc(C)ccc23)C1` (stereo not drawn) [H Me H Me n-Pr, 1,2,3,4-Tetrahydro-8-methyl-3-[2-(methylpropylamino)propyl]-5H-[1]benzopyrano[3,4-c]pyridin-5-one], 5.4 min.
For `CCN(CC)C(C)CN1CCc2c(c(=O)oc3cc(OC)ccc23)C1` (stereo not drawn) [H MeO H Et Et, 3-[2-(Diethylamino)propyl]-1,2,3,4-tetrahydro-8-methoxy-5H-[1]benzopyrano[3,4-c]pyridin-5-one], the “(Minutes Protection)” value is 10.0 min.
Turning to `CCNC(C)CN1CCc2c(c(=O)oc3cc(OC)ccc23)C1` (stereo not drawn) [H MeO H Et H, 3-[2-(Ethylamino)propyl]-1,2,3,4-tetrahydro-8-methoxy-5H-[1]benzopyrano[3,4-c]pyridin-5-one], the “(Minutes Protection)” value was determined as 7.5 min.
As to `CCCN(CC)C(C)CN1CCc2c(c(=O)oc3cc(OC)ccc23)C1` (stereo not drawn) [H MeO H Et n-Pr, 3-[2-(Ethylpropylamino)propyl]-1,2,3,4-tetrahydro-8-methoxy-5H-[1]benzopyrano[3,4-c]pyridin-5-one], the “(Minutes Protection)” value turned out to be 10.0 min.
In the case of `CCN(C)C(C)CN1CCc2c(c(=O)oc3cc(OC)ccc23)C1` (stereo not drawn) [H MeO H Me Et, 3-[2-(Ethylmethylamino)propyl]-1,2,3,4-tetrahydro-8-methoxy-5H-[1]benzopyrano[3,4-c]pyridin-5-one], the “(Minutes Protection)” value was 9.1 min.
Take `CNC(C)CN1CCc2c(c(=O)oc3cc(OC)ccc23)C1` (stereo not drawn) [H MeO H Me H, 1,2,3,4-Tetrahydro-8-methoxy-3-[2-(methylamino)propyl]-5H-[1]benzopyrano[3,4-c]pyridin-5-one]: the “(Minutes Protection)” value is 8.6 min.
With `COc1ccc2c3c(c(=O)oc2c1)CN(CC(C)N(C)C)CC3.Cl.Cl` (stereo not drawn) [H MeO H Me Me, 3-[2-(Dimethylamino)propyl]-1,2,3,4-tetrahydro-8-methoxy-5H-[1]benzopyrano[3,4-c]pyridin-5-one dihydrochloride], the “(Minutes Protection)” value worked out at 10.0 min.
On to `CCCCN(C)C(C)CN1CCc2c(c(=O)oc3cc(OC)ccc23)C1` (stereo not drawn) [H MeO H Me n-Bu], for which the “(Minutes Protection)” value stood at 8.6 min.
In the case of `CCCN(C)C(C)CN1CCc2c(c(=O)oc3cc(OC)ccc23)C1` (stereo not drawn) [H MeO H Me n-Pr, 1,2,3,4-Tetrahydro-8-methoxy-3[2-(methylpropylamino)propyl]-5H-[1]benzopyrano[3,4-c]pyridin-5-one], the “(Minutes Protection)” value was 10.0 min.
`CCN(CC)C(C)CN1CCc2c(c(=O)oc3c(OC)c(OC)ccc23)C1` (stereo not drawn) [H MeO MeO Et Et, 3-[2-(Diethylamino)propyl]-1,2,3,4-tetrahydro-7,8-dimethoxy-5H-[1]benzopyrano[3,4-c]pyridin-5-one]: the “(Minutes Protection)” value worked out at 7.6 min.
Take `CCNC(C)CN1CCc2c(c(=O)oc3c(OC)c(OC)ccc23)C1` (stereo not drawn) [H MeO MeO Et H, 3-[2-(Ethylamino)propyl]-1,2,3,4-tetrahydro-7,8-dimethoxy-5H-[1] benzopyrano[3,4-c]pyridin-5-one]: the “(Minutes Protection)” value came out at 9.1 min.
Regarding `CCN(C)C(C)CN1CCc2c(c(=O)oc3c(OC)c(OC)ccc23)C1.Cl.Cl` (stereo not drawn) [H MeO MeO Me Et, 3-[2-(Ethylmethylamino)propyl]-1,2,3,4-tetrahydro-7,8-dimethoxy-5H-[1]benzopyrano[3,4-c]pyridin-5-one dihydrochloride], the “(Minutes Protection)” value was 5.0 min.
For the compound `COc1ccc2c3c(c(=O)oc2c1OC)CN(CC(C)N(C)C)CC3.Cl.Cl` (stereo not drawn) [H MeO MeO Me Me, 3-[2-(Dimethylamino)propyl]-1,2,3,4-tetrahydro-7,8-dimethoxy-5H-[1]benzopyrano[3,4-c]pyridin-5-one dihydrochloride], the “(Minutes Protection)” value amounted to 5.5 min.
With `Cc1cc2oc(=O)c3c(c2cc1C)CCN(CC(C)N(C)C)C3` (stereo not drawn) [Me Me H Me Me, 3-[2-(Dimethylamino)propyl]-1,2,3,4-tetrahydro-8,9-dimethyl-5H-[1]benzopyrano[3,4-c]pyridin-5-one], the “(Minutes Protection)” value was determined as 4.8 min.
Turning to `CCCCN(CC)C(C)CN1CCc2c(c(=O)oc3cc(OC)c(OC)cc23)C1` (stereo not drawn) [MeO MeO H Et Bu, 3-[2-(Butylethylamino)propyl]-1,2,3,4-tetrahydro-8,9-dimethoxy-5H-[1]benzopyrano[3,4-c]pyridin-5-one], the “(Minutes Protection)” value worked out at 3.7 min.
For `CCCN(CC)C(C)CN1CCc2c(c(=O)oc3cc(OC)c(OC)cc23)C1` (stereo not drawn) [MeO MeO H Et n-Pr, 3-[2-(Ethylpropylamino)propyl]-1,2,3,4-tetrahydro-8,9-dimethoxy-5H-[1]benzopyrano[3,4-c]pyridin-5-one], the “(Minutes Protection)” value was found to be 3.7 min.
The result for `CCN(CC(C)C)C(C)CN1CCc2c(c(=O)oc3cc(OC)c(OC)cc23)C1` (stereo not drawn) [MeO MeO H Et s-Bu, 3-[2-[Ethyl(2-methylpropyl)amino]propyl]-1,2,3,4-tetrahydro-8,9-dimethoxy-5H-[1]benzopyrano[3,4-c]pyridin-5-one] reads 5.4 min; that for `CCN(C)C(C)CN1CCc2c(c(=O)oc3cc(OC)c(OC)cc23)C1.Cl.Cl` (stereo not drawn) [MeO MeO H Me Et, 3-[2-(Ethylmethylamino)propyl]-1,2,3,4-tetrahydro-8,9-dimethoxy-5H-[1]benzopyrano[3,4-c]pyridin-5-one dihydrochloride], 6.0 min.
As to `CCCN(C)C(C)CN1CCc2c(c(=O)oc3cc(OC)c(OC)cc23)C1` (stereo not drawn) [MeO MeO H Me n-Pr, 1,2,3,4-Tetrahydro-8,9-dimethoxy-3-[2-(methylpropylamino)propyl]-5H-[1]benzopyrano[3,4-c]pyridin-5-one], the “(Minutes Protection)” value stood at 2.5 min.
As to `CC(CN1CCc2c(c(=O)oc3cc4c(cc23)OCO4)C1)N(C)C` (stereo not drawn) [OCH2O H Me Me, 3-[2-(Dimethylamino)propyl]-1,2,3,4-tetrahydro-5H-[1,3]benzodioxolo]5',6':5,6]pyrano[3,4-c]pyridin-5-one dihydrochloride], the “(Minutes Protection)” value turned out to be 2.3 min.

Source of the values: patent US4382939A, “3-[2-(Mono-and dialkylamino)propyl]-1,2,3,4-tetrahydro-5H-[1]benzopyrano[3,4-C]pyridin- 5-ones useful for treating bronchospastic diseases” (Warner Lambert Company, priority 1982, dated 1983).
